In ChEMBL document CHEMBL3046429, “Synthesis, molecular modeling study, preliminary antibacterial, and antitumor evaluation of N-substituted naphthalimides and their structural analogues” (2013):
≈ marks a conversion by molar mass, not a printed value.

Columns and labels:
Assay type in all cases: functional
CCRF-CEM = experiment: Growth inhibition of Homo sapiens (human) CCRF-CEM cells at 10 uM after 48 hr by coulter counter analysis; conditions: read-out: GI
NCI-H226 = experiment: Growth inhibition of Homo sapiens (human) NCI-H226 cells at 10 uM after 48 hr by coulter counter analysis; conditions: NCI-H226, 48 h, read-out: GI
CAKI-1 = experiment: Growth inhibition of Homo sapiens (human) CAKI-1 cells at 10 uM after 48 hr by coulter counter analysis; conditions: CAKI-1, 48 h, read-out: GI
A498 = experiment: Growth inhibition of Homo sapiens (human) A498 cells at 10 uM after 48 hr by coulter counter analysis; conditions: A498, 48 h, read-out: GI
HCT-116 = experiment: Growth inhibition of Homo sapiens (human) HCT116 cells at 10 uM after 48 hr by coulter counter analysis; conditions: HCT-116, 48 h, read-out: GI
COLO 205 = experiment: Growth inhibition of Homo sapiens (human) COLO205 cells at 10 uM after 48 hr by coulter counter analysis; conditions: COLO 205, 48 h, read-out: GI
Pseudomonas aeruginosa = experiment: Antibacterial activity against Pseudomonas aeruginosa assessed as growth inhibition after 24 hr by two-fold serial dilution method
Escherichia coli = experiment: Antibacterial activity against Escherichia coli assessed as growth inhibition after 24 hr by two-fold serial dilution method
PC-3 = experiment: Growth inhibition of Homo sapiens (human) PC3 cells at 10 uM after 48 hr by coulter counter analysis; conditions: PC-3, 48 h, read-out: GI
MDA-MB-468 = experiment: Growth inhibition of Homo sapiens (human) MDA-MB-468 cells at 10 uM after 48 hr by coulter counter analysis; conditions: MDA-MB-468, 48 h, read-out: GI
SK-MEL-5 = experiment: Growth inhibition of Homo sapiens (human) SK-MEL-5 cells at 10 uM after 48 hr by coulter counter analysis; conditions: SK-MEL-5, 48 h, read-out: GI
HOP-92 = experiment: Growth inhibition of Homo sapiens (human) HOP92 cells at 10 uM after 48 hr by coulter counter analysis; conditions: HOP-92, 48 h, read-out: GI
Hs-578T = experiment: Growth inhibition of Homo sapiens (human) Hs 578T cells at 10 uM after 48 hr by coulter counter analysis; conditions: read-out: GI
HCT-15 = experiment: Growth inhibition of Homo sapiens (human) HCT15 cells at 10 uM after 48 hr by coulter counter analysis; conditions: HCT-15, 48 h, read-out: GI
OVCAR-4 = experiment: Growth inhibition of Homo sapiens (human) OVCAR4 cells at 10 uM after 48 hr by coulter counter analysis; conditions: OVCAR-4, 48 h, read-out: GI
T47D = experiment: Growth inhibition of Homo sapiens (human) T47D cells at 10 uM after 48 hr by coulter counter analysis; conditions: read-out: GI
SF-295 = experiment: Growth inhibition of Homo sapiens (human) SF295 cells at 10 uM after 48 hr by coulter counter analysis; conditions: SF-295, 48 h, read-out: GI
MCF7 = experiment: Growth inhibition of Homo sapiens (human) MCF7 cells at 10 uM after 48 hr by coulter counter analysis; conditions: MCF7, 48 h, read-out: GI
SK-MEL-2 = experiment: Growth inhibition of Homo sapiens (human) SK-MEL-2 cells at 10 uM after 48 hr by coulter counter analysis; conditions: SK-MEL-2, 48 h, read-out: GI
RPMI-8226 = experiment: Growth inhibition of Homo sapiens (human) RPMI8226 cells at 10 uM after 48 hr by coulter counter analysis; conditions: RPMI-8226, 48 h, read-out: GI
IGROV-1 = experiment: Growth inhibition of Homo sapiens (human) IGROV1 cells at 10 uM after 48 hr by coulter counter analysis; conditions: IGROV-1, 48 h, read-out: GI
SNB-19 = experiment: Growth inhibition of Homo sapiens (human) SNB19 cells at 10 uM after 48 hr by coulter counter analysis; conditions: SNB-19, 48 h, read-out: GI
M14 = experiment: Growth inhibition of Homo sapiens (human) M14 cells at 10 uM after 48 hr by coulter counter analysis; conditions: M14, 48 h, read-out: GI
KM12 = experiment: Growth inhibition of Homo sapiens (human) KM12 cells at 10 uM after 48 hr by coulter counter analysis; conditions: KM12, 48 h, read-out: GI
SNB-75 = experiment: Growth inhibition of Homo sapiens (human) SNB75 cells at 10 uM after 48 hr by coulter counter analysis; conditions: SNB-75, 48 h, read-out: GI
OVCAR-5 = experiment: Growth inhibition of Homo sapiens (human) OVCAR5 cells at 10 uM after 48 hr by coulter counter analysis; conditions: OVCAR-5, 48 h, read-out: GI
NCI-H522 = experiment: Growth inhibition of Homo sapiens (human) NCI-H522 cells at 10 uM after 48 hr by coulter counter analysis; conditions: NCI-H522, 48 h, read-out: GI
SK-OV-3 = experiment: Growth inhibition of Homo sapiens (human) SKOV3 cells at 10 uM after 48 hr by coulter counter analysis; conditions: SK-OV-3, 48 h, read-out: GI
Malme-3M = experiment: Growth inhibition of Homo sapiens (human) MALME-3M cells at 10 uM after 48 hr by coulter counter analysis; conditions: read-out: GI
HT-29 = experiment: Growth inhibition of Homo sapiens (human) HT-29 cells at 10 uM after 48 hr by coulter counter analysis; conditions: HT-29, 48 h, read-out: GI
Bacillus subtilis = experiment: Antibacterial activity against Bacillus subtilis assessed as growth inhibition after 24 hr by two fold serial dilution method
EKVX = experiment: Growth inhibition of Homo sapiens (human) EKVX cells at 10 uM after 48 hr by coulter counter analysis; conditions: read-out: GI
DU-145 = experiment: Growth inhibition of Homo sapiens (human) DU145 cells at 10 uM after 48 hr by coulter counter analysis; conditions: DU-145, 48 h, read-out: GI
SW-620 = experiment: Growth inhibition of Homo sapiens (human) SW620 cells at 10 uM after 48 hr by coulter counter analysis; conditions: SW-620, 48 h, read-out: GI
U-251 = experiment: Growth inhibition of Homo sapiens (human) U251 cells at 10 uM after 48 hr by coulter counter analysis; conditions: U-251, 48 h, read-out: GI
Staphylococcus aureus = experiment: Antibacterial activity against Staphylococcus aureus assessed as growth inhibition after 24 hr by two fold serial dilution method
K562 = experiment: Growth inhibition of Homo sapiens (human) K562 cells at 10 uM after 48 hr by coulter counter analysis; conditions: K562, 48 h, read-out: GI

O=C1c2nccnc2C(=O)N1c1c(Cl)cc(Cl)cc1Cl
inhibition of growth at 10 µM (CCRF-CEM): 3.38%
inhibition of growth at 10 µM (NCI-H226): 9.41%
inhibition of growth at 10 µM (CAKI-1): 18%
inhibition of growth at 10 µM (A498): 20.9%
inhibition of growth at 10 µM (HCT-116): 1.17%
inhibition of growth at 10 µM (COLO 205): 8.27%
MIC (Pseudomonas aeruginosa): 20 µg/mL (≈ 60.9 µM)
-logMIC (Escherichia coli): 4.68
MIC (Escherichia coli; Escherichia coli, 24 h): 6.9 µg/mL (≈ 21 µM)
inhibition of growth at 10 µM (PC-3): 22.7%
inhibition of growth at 10 µM (MDA-MB-468): 17.8%
inhibition of growth at 10 µM (SK-MEL-5): -6.79%
inhibition of growth at 10 µM (HOP-92): 57.1%
inhibition of growth at 10 µM (Hs-578T): 15.3%
inhibition of growth at 10 µM (HCT-15): 7.09%
inhibition of growth at 10 µM (OVCAR-4): -0.64%
inhibition of growth at 10 µM (T47D): 5.37%
inhibition of growth at 10 µM (SF-295): -2.42%
inhibition of growth at 10 µM (MCF7): 3.64%
inhibition of growth at 10 µM (SK-MEL-2): -0.16%
inhibition of growth at 10 µM (RPMI-8226): 4.32%
inhibition of growth at 10 µM (IGROV-1): 7.24%
inhibition of growth at 10 µM (SNB-19): -2.3%
inhibition of growth at 10 µM (M14): 3.32%
inhibition of growth at 10 µM (KM12): 10.3%
inhibition of growth at 10 µM (SNB-75): 47.4%
inhibition of growth at 10 µM (OVCAR-5): -1.7%
inhibition of growth at 10 µM (NCI-H522): 14.9%
inhibition of growth at 10 µM (SK-OV-3): 4.55%
inhibition of growth at 10 µM (Malme-3M): 21.1%
inhibition of growth at 10 µM (HT-29): 4.24%
MIC (Bacillus subtilis): 20 µg/mL (≈ 60.9 µM)
inhibition of growth at 10 µM (EKVX): 8.2%
inhibition of growth at 10 µM (DU-145): 18.6%
inhibition of growth at 10 µM (SW-620): -7.54%
inhibition of growth at 10 µM (U-251): -7.03%
-logMIC (Staphylococcus aureus): 4.22
MIC (Staphylococcus aureus; Staphylococcus aureus, 24 h): 20 µg/mL (≈ 60.9 µM)
inhibition of growth at 10 µM (K562): 10.1%
